Values of other authors, collected in patent US8821924B2, “Rhein or diacerein compositions” (Wockhardt Ltd., priority 2007, dated 2014).

Details: water, alcohols, acetone, dichloromethane and chloroform

CC(=O)Oc1cccc2c1C(=O)c1c(OC(C)=O)cc(C(=O)O)cc1C2=O [Diacerein, 4,5-bis(acetyloxy)9,10-dihydro-4,5-dihydroxy-9,10-dioxo-2-anthracenecarboxylic acid]
solubility in solvents: practically insoluble
